Source: article PMC7395068, “The evolution of strategies to minimise the risk of human drug-induced liver injury (DILI) in drug discovery and development” (Archives of Toxicology, 2020)
Structures can show the parent of a compound that is named as a salt. Where two headings read alike, the source gives them in different places.

Experiments:
RMPCC's [1] = details: cited from earlier work
human hepatocytes = details: cited from earlier work
[2] = cited from earlier work
hu-MPCC = details: cited from earlier work
[3] = tested on: HepG2 cells, primary human hepatocytes; details: In vitro Assay; ref Garside 2014; cited from earlier work
[4] = ref Chen 2011; cited from earlier work
[5] = tested on: THLE or HepG2 cells, isolated mitochondria, BSEP; details: cited from earlier work
hLiMTs = experiment: Combined HCI (HCS) and cellular ATP 3D assay in hLiMTs
[6] = tested on: primary human hepatocytes, NIH3T3 fibroblasts, BSEP, CYP3A4; details: cited from earlier work
[7] = read-out: Human plasma Cmax; total plasma Cmax.tot, median of 9 literature references; cited from earlier work
[8] = cited from earlier work; remark: listed apart in the source
[9] = tested on: isolated mouse liver mitochondria; details: In vitro Assay; ref Porceddu 2012; cited from earlier work
[10] = tested on: THLE-Null and THLE-3A4 cells; details: In vitro Assay; ref Gustafsson 2014; cited from earlier work
HepG2 = tested on: HepG2; parameters: method as in Albrecht 2019; details: In vitro Assay; ref Albrecht 2019; cited from earlier work
RMPCC's [11] = details: In vitro Assay; ref Khetani 2012; cited from earlier work
rBsep [12] = details: In vitro Assay; ref Dawson 2012; cited from earlier work
HepG2 cells [13] = details: cited from earlier work
Upcyte human hepatocytes = details: In vitro Assay; ref Tolosa 2019; cited from earlier work
HepaRG spheroids = experiment: Combined HCI (HCS) and cellular ATP 3D assay in HepaRG spheroids; details: for AC50 / minimal effective concentration: Homo sapiens; for DILI prediction HepaRG spheroids (HCS-MEC): Microtissue model structural based (HCI), combined HCS and ATP, MEC < 25 × Cmax.tot cut-off
Experimental: 3D spheroid models consisting of either primary human hepatocytes with non-parenchymal cells (hLiMT’s) or HepaRG cells (HepaRG spheroids) were assessed for size (MS), oxidative stress (OS), MMP, mitochondrial mass (MM), GSH and cellular ATP content following drug exposure. Fluorescent images are acquired using the confocal mode of an ArrayScan™ XTI HCI reader (ThermoScientific) following which cellular ATP was measured using 3D CellTiter-Glo (Promega).

[14] = plasma free fraction; cited from earlier work
PHH = details: In vitro Assay; ref Albrecht 2019; cited from earlier work
[15] = Plasma free fraction (fu) and unbound Cmax (Cmax,u); format: in vitro ADME, human; details: unbound plasma Cmax
Experimental: The prediction of DILI severity was evaluated further using the 3D combined HCI assays using plasma-free fraction. The majority of fu values were obtained from literature, when unavailable in-house prediction was utilised. Unbound plasma Cmax concentrations (Cmax,u) were derived by multiplying total plasma Cmax with the corresponding free fraction (fu) for each compound.

rBsep [16] = tested on: rBsep; parameters: method as in Dawson 2012; details: In vitro Assay; ref Dawson 2012; cited from earlier work
HepG2 cells [17] = details: In vitro Assay; ref O'Brien 2006; cited from earlier work
[18] = In vitro Assay, ref Khetani 2012
[19] = Modeled in vitro assays (cytotoxicity, mitochondrial dysfunction, BSEP), ref Aleo et al. 2019
[20] = In vitro Assay, ref Schadt 2015

In the case of CCN(CC)CCOc1ccc(C(=C(Cl)c2ccccc2)c2ccccc2)cc1 [clomiphene citrate], the “RMPCC's” value (RMPCC's [1]; [18]) is listed as “-VE”, the “Structural based (HCI)” value (human hepatocytes; In vitro Assay, ref Xu 2008) is listed as “-VE” and the “In vivo DILI” value ([2]; ref Khetani 2012) is listed as “+VE”. The “In vivo DILI” value ([2]; ref Xu 2008) was “+VE” and the “HMPCC's” value (hu-MPCC; [18]) was “-VE”.

In the case of CC(=O)O[C@]1(C(C)=O)CC[C@H]2[C@@H]3C=C(Cl)C4=CC(=O)[C@@H]5C[C@@H]5[C@]4(C)[C@H]3CC[C@@]21C [cyproterone acetate], the “RMPCC's” value (RMPCC's [1]; [18]) is listed as “+VE”, the “Structural based (HCI)” value (human hepatocytes; In vitro Assay, ref Xu 2008) is listed as “-VE” and the “In vivo DILI” value ([2]; […]) is listed as “+VE”. For the same molecule, the “In vivo DILI” value ([2]; ref Khetani 2012) was “+VE”, the “In vivo DILI” value ([2]; ref Xu 2008) was “+VE” and the “HMPCC's” value (hu-MPCC; [18]) was “+VE”.

In the case of NNC(=O)c1ccncc1 [isoniazid, reference compound], the “Cluster 1-6 +VE Assay” value [3] is listed as “-VE”, the “Structural based (HCI)” value (human hepatocytes; In vitro Assay, ref Xu 2008) is listed as “-VE” and the “DILI in vitro assay prediction, Xu (2008)” value (human hepatocytes; Structural based (HCI), human hepatocytes, ref Xu et al. 2008) is listed as “-VE”. The “DILI Score (FDA) (1-8)” value [4] was 8, the “Partition Hybrid HRM Score” value ([5]; In vitro Assay, ref Aleo 2019) was “+VE” and the “Ro2 Hybrid HRM Score” value ([5]; In vitro Assay, ref Aleo 2019) was “-VE”. For the same molecule, the “Partition Hybrid HRM Score ≥4, Aleo (2019)” value [5, 19] was “+VE (Partition Hybrid HRM Score ≥4)”, the “Partition Hybrid HRM Score ≥8, Aleo (2019)” value [5, 19] was “-VE” and the “Rule of Two hybrid HRM Score ≥3, Aleo (2019)” value [5, 19] was “-VE”. For the same molecule, the “Rule of Two hybrid HRM Score ≥8, Aleo (2019)” value [5, 19] was “-VE”, the “DILI prediction hLiMTs (HCS-MEC)” value (hLiMTs; Microtissue model structural based (HCI), combined HCS and ATP, MEC < 25 × Cmax.tot cut-off) was “-VE” and the “hLiMTs <25x Avg Cmax ATP” value (hLiMTs; hLiMTs, ATP endpoint, cut-off <25x Avg Cmax) was “-ve”. For the same molecule, the “hLiMTs <100x Avg Cmaxu ATP” value (hLiMTs; hLiMTs, ATP endpoint, cut-off <100x Avg Cmaxu) was “-ve”, the “hLiMTs <25x Avg Cmax HCS” value (hLiMTs; hLiMTs, HCS endpoints, cut-off <25x Avg Cmax) was “-ve” and the “hLiMTs <100x Avg Cmaxu HCS” value (hLiMTs; hLiMTs, HCS endpoints, cut-off <100x Avg Cmaxu) was “-ve”. The “hLiMTs <25x Avg Cmax All” value (hLiMTs; hLiMTs, all endpoints (ATP and HCS), cut-off <25x Avg Cmax) was “-ve”, the “hLiMTs Cmax max All” value (hLiMTs; hLiMTs, all endpoints, Cmax max used) was “-ve” and the “hLiMTs Cmax min All” value (hLiMTs; hLiMTs, all endpoints, Cmax min used) was “-ve”. For the same molecule, the “hLiMTs <10 uM All” value (hLiMTs; hLiMTs, all endpoints, cut-off <10 uM) was “-ve”, the “hLiMTs <100x Avg Cmaxu All” value (hLiMTs; hLiMTs, all endpoints, cut-off <100x Avg Cmaxu) was “-ve” and the “DILI in vitro assay prediction, Schadt (2015)” value ([6]; BSEP & Metabolism based, ref Schadt et al. 2015) was “+VE”. For the same molecule, the “Cellular toxicity (3T3 cells)” value [6, 20] was “-VE”, the “Combined Assay” value [6, 20] was “+VE” and the “GSH adduct HML” value [6, 20] was “-VE”. The Hepatocyte cellular toxicity [6, 20] was “-VE”, the “MitoTox 3T3” value [6, 20] was “+VE” and the hBSEP inhibition [6, 20] was “-VE”. The “Assigned DILI category” value ([2]; Chen et al. 2016 or literature alignment, ref Chen et al. 2016) was 3, the “In vivo DILI” value ([2]; […]) was “+VE” and the “In vivo DILI” value ([2]; ref Albrecht 2019) was “+VE”. For the same molecule, the “In vivo DILI” value ([2]; ref Aleo 2019) was “+VE”, the “In vivo DILI” value ([2]; ref Dawson 2012) was “+VE” and the “In vivo DILI” value ([2]; ref Garside 2014) was “+VE”. The “In vivo DILI” value ([2]; ref Gustafsson 2014) was “+VE”, the “In vivo DILI” value ([2]; ref Khetani 2012) was “+VE” and the “In vivo DILI” value ([2]; ref Porceddu 2012) was “+VE”. For the same molecule, the “In vivo DILI” value ([2]; ref Schadt 2015) was “+VE”, the “In vivo DILI” value ([2]; ref Tolosa 2012) was “+VE” and the “In vivo DILI” value ([2]; ref Tolosa 2019) was “+VE”. The “In vivo DILI” value ([2]; ref Xu 2008) was “+VE”, the Cmax [7] was 76.6 µM and the “DILI severity category (Chen 2016)” value ([8]; human DILI classification, LTKB DILIrank, ref Chen et al. 2016) was “Most”. For the same molecule, the DILI severity category ([8]; human DILI severity, ref Chen et al.) was “Most”, the “DILI +VE (5-8), DILI -VE (-4)” value ([8]; ref Chen 2016) was “+VE” and the DILI severity category ([8]; ref Chen 2016) was “vMost-DILI-Concern”. For the same molecule, the “in vitro data EC2<=1x Cmax” value [9] was “+VE”, the “in vitro data EC20<=2uM” value [9] was “-VE” and the “HMPCC's” value (hu-MPCC; [18]) was “+VE”. The THLE-Null [10] was “-VE”, the “Cytotoxicity HepG2 48 hrs” value (HepG2) was “+VE” and the “RMPCC's” value (RMPCC's [11]) was “-VE”. For the same molecule, the “Inhibition of rBsep cutoff<1& cmax u>.2” value (rBsep [12]) was “-VE”, the “Inhibition of rBsep cutoff<3” value (rBsep [12]) was “-VE” and the “Structural based (HCI)” value (HepG2 cells [13]; In vitro Assay, ref Tolosa 2012) was “+VE”. For the same molecule, the “DILI in vitro assay prediction, Tolosa (2012)” value (HepG2 cells [13]; Structural based (HCI), HepG2, ref Tolosa et al. 2012) was “-VE”, the “Upcytes multi donor assay 14day data” value (Upcyte human hepatocytes) was “+VE” and the “HepaRG <25x Avg Cmax ATP” value (HepaRG spheroids; HepaRG, ATP endpoint, cut-off <25x Avg Cmax) was “+ve”. The “HepaRG <100x Avg Cmaxu ATP” value (HepaRG spheroids; HepaRG, ATP endpoint, cut-off <100x Avg Cmaxu) was “+ve (<100x Avg Cmaxu)”, the “HepaRG <25x Avg Cmax HCS” value (HepaRG spheroids; HepaRG, HCS endpoints, cut-off <25x Avg Cmax) was “-ve” and the “HepaRG <100x Avg Cmaxu HCS” value (HepaRG spheroids; HepaRG, HCS endpoints, cut-off <100x Avg Cmaxu) was “+ve (<100x Avg Cmaxu)”. The “HepaRG <25x Avg Cmax All” value (HepaRG spheroids; HepaRG, all endpoints (ATP and HCS), cut-off <25x Avg Cmax) was “+ve”, the “HepaRG Cmax max All” value (HepaRG spheroids; HepaRG, all endpoints, Cmax max used) was “+ve” and the “HepaRG Cmax min All” value (HepaRG spheroids; HepaRG, all endpoints, Cmax min used) was “-ve”. The “HepaRG <10 uM All” value (HepaRG spheroids; HepaRG, all endpoints, cut-off <10 uM) was “-ve”, the “HepaRG <100x Avg Cmaxu All” value (HepaRG spheroids; HepaRG, all endpoints, cut-off <100x Avg Cmaxu) was “+ve (<100x Avg Cmaxu)” and the AC50 (HepaRG spheroids; HepaRG, read-out: ATP endpoint AC50) was 3.52 mM. For the same molecule, the minimal effective concentration (HepaRG spheroids; HepaRG, read-out: ATP endpoint MEC) was 1330 µM, the AC50 (HepaRG spheroids; HepaRG, read-out: HCS endpoint AC50) was 14 mM and the minimal effective concentration (HepaRG spheroids; HepaRG, read-out: HCS endpoint MEC) was 5790 µM. The “DILI prediction HepaRG spheroids (HCS-MEC)” value (HepaRG spheroids) was “+VE (MEC < 25 × Cmax.tot cut-off)”, the “DILI prediction HepaRG spheroids (HCS-MEC)” value (HepaRG spheroids; listed as Isoniazid) was “positive” and the fu [14] was 0.970. For the same molecule, the “Cytotoxicity PHH 48 hrs” value (PHH) was “+VE” and the “Human plasma Cmax,u” value [15] was 74.267 µM.

In the case of C#CC1(O)CC[C@H]2[C@@H]3CCC4=CC(=O)CC[C@@H]4[C@H]3CC[C@@]21CC (stereo partly drawn) [norgestrel], the “RMPCC's” value (RMPCC's [1]) is listed as “-VE”, the “Structural based (HCI)” value (human hepatocytes) is listed as “-VE” and the “In vivo DILI” value ([2]; in vivo) is listed as “+VE”. For the same molecule, the “HMPCC's” value (hu-MPCC) was “-VE”.

In the case of CCCC(CCC)C(=O)O [valproate], the “Upcytes multi donor assay 14day data” value (Upcyte human hepatocytes) is listed as “+VE”, the “Inhibition of rBsep cutoff<1& cmax u>.2” value (rBsep [16]) is listed as “-VE” and the “Inhibition of rBsep cutoff<3” value (rBsep [16]) is listed as “-VE”. The “Structural based (HCI)” value (HepG2 cells [17]) was “+VE (lowest HCI endpoint IC50 (or in the absence of dose–response < 100 µM) < 30 × total human plasma exposure levels (Cmax.tot))”.
